We go through two compounds from patent US12209112B2, “Methods of preventing or treating diseases, conditions, or disorders associated with chemotherapy” (The Chinese University of Hong Kong, priority 2022, dated 2025).

The subject of one data set is C57BL/6J male mice. As to conditions: mouse, in vivo. The protocol: Recombinant human GDF15/MIC-1 protein (CHO-derived) was purchased from PeproTech Inc. (Cranbury, USA) and described in Example 1. […] For in vitro studies, solid lyophilized powder of these two drugs were solubilized at the recommended concentrations in sterile water, and separate aliquots were made and frozen until thawing prior to addition to cell cultures. For in vivo studies, all agents were dissolved in […] normal saline according to the required concentrations (doxorubicin, 5 mg/kg; GDF15, 0.5 mg/kg; dexrazoxane, […]), and the final volume of each intraperitoneal injection was 100 μl. The recommended dose ratio of dexrazoxane to doxorubicin was 10 to 1. In the following examples, 5 mg/kg of doxorubicin was used which correspond to 50 mg/kg of dexrazoxane. The FDA recommends that dexrazoxane be injected within 0.5 hour prior to doxorubicin infusion in individuals. This was followed in the same manner when applying to the test animals.
The body weight of each mouse was recorded weekly, before each doxorubicin injection and before sacrifice. At the end of experiment, all mice were euthanized with sodium pentobarbital 100 mg/kg administered intraperitoneally, and the hearts were excised immediately. The tibia of the mice were carefully dissected and its length was measured. […]

For data set [1] the following is noted: cancer survivors exposed to >250 mg/m2 doxorubicin vs. non-exposed; cited from earlier work.
The subject of another data set is hESC-CMs. Description: PrestoBlue cell viability analysis of hESC-CMs exposed to doxorubicin. In kind it is cell-based, human. The following applies: for optimal timing of pretreatment prior to doxorubicin: 1, 6, 24, 48, 72 h tested, doxorubicin 1.5 μM for 24 h. The protocol:
Viability of hESC-CMs was assessed using PrestoBlue (Thermo Fisher Scientific, USA). hESC-CMs in suspension were seeded at a density of 15,000 cells per well on 96-well flat-bottom microtiter plates and cultured at 37° C. in a humidified 5% CO2 atmosphere. The B27+/RPMI-1640 media with Y27632 were changed to B27+/RPMI−1640 media within 24 hours. Cells were then incubated in B27+/RPMI−1640 without supplement for at least 72 hours. PrestoBlue was diluted in a ratio of 1:10 in B27+/RPMI−1640 media and incubated with the cells at 37° C. for 30 minutes. After incubation, fluorescence reading was performed at excitation and emission wavelengths of 530 nm and 590 nm, respectively, using the Synergy HTX Multi-Mode microplate reader (Agilent Technologies, Inc., USA).
Six logarithmic concentrations of GDF15 were initially used to identify the optimal dose for cytoprotection: 0.1 ng/ml, 1 ng/ml, 10 ng/ml, 100 ng/ml, 1,000 ng/ml (1 ug/ml), and 10,000 ng/ml (10 ug/ml). Further refinement of dose response was subsequently achieved using concentrations at 100 ng/ml, 200 ng/ml, and 300 ng/ml. The optimal time point (see below) of 24 hours was selected. Doxorubicin at 1.5 μM was used to induce cytotoxicity.
hESC-CMs were pretreated with GDF15 for 1 hour, 6 hours, 24 hours, 48 hours, or 72 hours (“pretreatment”), followed by exposure to 1.5 μM doxorubicin alone for a further 24 hours. A second set of experiments involved pretreatment of hESC-CMs for 1 hour, 6 hours, 24 hours, 48 hours, or 72 hours, followed by removal of the media containing GDF15, and coincubation of hESC-CMs with both GDF15 and doxorubicin for another 24h (“pre/co-treatment”). The efficacy of GDF15 in protecting cardiomyocytes was assessed by cell viability analysis using PrestoBlue.

For `COc1cccc2c1C(=O)c1c(O)c3c(c(O)c1C2=O)C[C@@](O)(C(=O)CO)C[C@@H]3OC1C[C@H](N)[C@H](O)[C@H](C)O1.Cl` (stereo partly drawn) [Dox, (8S,10S)-10-[(3-Amino-2,3,6-trideoxy-L-lyxohexopyranosyl)oxy]-7,8,9,10-tetrahydro-6,8,11-trihydroxy-8-(hydroxyacetyl)-1-methoxynaphthacene-5,12-dione hydrochloride, reference compound], the “heart weight-to-tibia length ratio” value in the data set on C57BL/6J male mice is given as “decrease”. Also, the “hazard ratio for developing heart failure” value in data set [1] is recorded as 8.6.

For the compound “GDF15: commercially available recombinant human GDF-15 protein (PeproTech 120-28C), CHO cell-derived, SEQ ID NO: 1”, the “cytoprotective effects after priming, pre/co-treatment” value with hESC-CMs (hESC-CMs primed with GDF15 for 24 hours, then coincubation with GDF15 and doxorubicin 24 h) is “cytoprotective effects persisted”. Besides, the “optimal timing of pretreatment prior to doxorubicin” value was 24 h with hESC-CMs (hESC-CMs) and “approximately 24 hours” with hESC-CMs (hESC-CMs, listed as recombinant GDF15). For the same compound, the “cell viability (positive PrestoBlue staining)” value in the data set with hESC-CMs (hESC-CMs, GDF15 pretreatment for 24 hours before doxorubicin 1.5 μM) is reported as “increased cell viability”. Also, the “cell viability compared with dexrazoxane” value in the data set on hESC-CMs (hESC-CMs, pretreatment in the presence of Dox) is listed as “slightly higher percentage of cell viability”.
